# Experimental data from patent US10899738B2 (THE REGENTS OF THE UNIVERSITY OF MICHIGAN, priority 2016, dated 2021).
# Target: menin protein (Homo sapiens (Human), UniProt O00255)
# Test: biochemical
# Format: binding
# Conditions: FP competitive binding; menin protein 4 nM, FAM-MM2 probe 2 nM
# Procedure, shortened: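 Test compounds displaced FAM-MM2 (2 nM) from 4 nM menin after 30 min equilibration at room temperature in PBS buffer containing bovine γ-globulin, 4% DMSO and Triton X-100. Binding was followed by fluorescence polarization. Competition curves were fitted by nonlinear regression to give IC50 and Ki.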
# Chain of menin protein (O00255 whole entry): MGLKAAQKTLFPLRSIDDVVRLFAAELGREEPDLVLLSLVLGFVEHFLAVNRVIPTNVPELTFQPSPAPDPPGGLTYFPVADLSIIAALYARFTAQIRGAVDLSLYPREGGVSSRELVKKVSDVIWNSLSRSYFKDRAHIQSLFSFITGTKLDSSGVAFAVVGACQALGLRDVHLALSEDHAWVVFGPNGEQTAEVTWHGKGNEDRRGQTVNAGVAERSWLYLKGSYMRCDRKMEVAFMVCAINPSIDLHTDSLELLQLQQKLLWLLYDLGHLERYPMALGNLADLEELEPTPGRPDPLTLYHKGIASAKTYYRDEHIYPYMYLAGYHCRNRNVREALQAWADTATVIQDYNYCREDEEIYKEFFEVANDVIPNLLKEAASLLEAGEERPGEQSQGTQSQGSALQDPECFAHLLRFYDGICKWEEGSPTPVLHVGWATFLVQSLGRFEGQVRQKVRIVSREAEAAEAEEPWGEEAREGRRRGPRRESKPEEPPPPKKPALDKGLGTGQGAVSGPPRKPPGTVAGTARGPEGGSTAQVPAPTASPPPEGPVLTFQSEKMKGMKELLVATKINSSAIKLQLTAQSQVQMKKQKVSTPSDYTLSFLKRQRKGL
row,Menin Binding Affinity IC50 (μM),SMILES
1,No inhibition,"N#Cc1ccc(OCCCNc2ccc(C(O)(c3ccccc3)C3CCCC3)cn2)cc1 (stereo not drawn) [compound 125, 4-(3-((5-(cyclopentyl(hydroxy)(phenyl)methyl)pyridin-2-yl)amino)propoxy)benzonitrile]"
2,No inhibition,"N#Cc1ccc(OCCCN2CC(C3(C4CCCC4)NCCc4ccccc43)C2)cc1 (stereo not drawn) [compound 60, 4-(3-(3-(1-cyclopentyl-1,2,3,4-tetrahydroisoquinolin-1-yl)azetidin-1-yl)propoxy)benzonitrile]"

# Same assay, conditions: FP competitive binding; menin protein 4 nM, FAM-MM2 probe 2 nM; read-out: Menin Binding Affinity IC50
row,SMILES,IC50
1,"CC(=O)NCC(c1ccccc1)(C1CCCC1)C1CCN(CCCOc2ccc(C#N)cc2)CC1 (stereo not drawn) [compound 40, N-(2-(1-(3-(4-cyanophenoxy)propyl)piperidin-4-yl)-2-cyclopentyl-2-phenylethyl)acetamide]",817 nM
2,"N#Cc1ccc(OCCCN2CCC(C(C#N)(CC(=O)N3CCCC3)c3ccccc3)CC2)cc1 (stereo not drawn) [compound 306, 4-(3-(4-(1-cyano-3-oxo-1-phenyl-3-(pyrrolidin-1-yl)propyl)piperidin-1-yl)propoxy)benzonitrile]",40000 nM
3,"CN1COCN([C@@H]2CCC[C@H]2C(C#N)(c2ccccc2)C2CCN(CC3CN(c4ccc(S(=O)(=O)c5ccncc5)cc4)C3)CC2)C1=O (mixture of isomers) [compound 280, rac-2-((1S,2R)-2-(5-methyl-4-oxo-1,3,5-oxadiazinan-3-yl)cyclopentyl)-2-phenyl-2-(1-((1-(4-(pyridin-4-ylsulfonyl)phenyl)azetidin-3-yl)methyl)piperidin-4-yl)acetonitrile]",1400 nM
4,"Cc1cc(C#N)ccc1N1CC(CN2CCC(C3(C4CCCC4)NCCc4ccccc43)CC2)C1 (stereo not drawn) [compound 138, 4-(3-((4-(1-cyclopentyl-1,2,3,4-tetrahydroisoquinolin-1-yl)piperidin-1-yl)methyl)azetidin-1-yl)-3-methylbenzonitrile]",99 nM
5,"CCC(C)CC1(C2CCN(CCCOc3ccc(C#N)cc3)CC2)NCCc2ccccc21 (stereo not drawn) [compound 172, 4-(3-(4-(1-(2-methylbutyl)-1,2,3,4-tetrahydroisoquinolin-1-yl)piperidin-1-yl)propoxy)benzonitrile]",11200 nM
6,"N#Cc1ccc2c(c1)CCN(C(=O)CN1CCC(C3(C4CCCC4)NCCc4ccccc43)CC1)C2 (stereo not drawn) [compound 83, 2-(2-(4-(1-cyclopentyl-1,2,3,4-tetrahydroisoquinolin-1-yl)piperidin-1-yl)acetyl)-1,2,3,4-tetrahydroisoquinoline-6-carbonitrile]",847 nM
7,"COC(=O)N[C@H]1CCC[C@@H]1C(C#N)(c1ccccc1)C1CCN(CCC#Cc2ccc(S(=O)(=O)C(F)(F)F)cc2)CC1 (mixture of isomers) [compound 405, methyl rac-((1S,2R)-2-(cyano(phenyl)(1-(4-(4-((trifluoromethyl)sulfonyl)phenyl)but-3-yn-1-yl)piperidin-4-yl)methyl)cyclopentyl)carbamate]",174 nM
8,"N#Cc1ccc(OCCCN2CCC(C3(C4CCCS4(=O)=O)NCCc4ccccc43)CC2)cc1 (stereo not drawn) [compound 304, 4-(3-(4-(1-(1,1-dioxidotetrahydrothiophen-2-yl)-1,2,3,4-tetrahydroisoquinolin-1-yl)piperidin-1-yl)propoxy)benzonitrile]",10700 nM
9,"CS(=O)(=O)c1ccc(OCCCN2CCC(C3(C4CCCC4)NCCc4ccccc43)CC2)cc1 (stereo not drawn) [compound 296, 1-cyclopentyl-1-(1-(3-(4-(methylsulfonyl)phenoxy)propyl)piperidin-4-yl)-1,2,3,4-tetrahydroisoquinoline]",400 nM
10,"CC(=O)O[C@@H]1CCC[C@H]1C(C#N)(c1ccccc1)C1CCN(CC2CN(c3ccc(S(=O)(=O)C4CC4)cc3)C2)CC1 (mixture of isomers) [compound 188, rac-((1R,2S)-2-(cyano(1-((1-(4-(cyclopropylsulfonyl)phenyl)azetidin-3-yl)methyl)piperidin-4-yl)(phenyl)methyl)cyclopentyl acetate]",1700 nM
11,"CC(=O)O[C@H]1CCC[C@@H]1C(C#N)(c1ccccc1F)C1CCN(CCCOc2ccc(C#N)cc2)CC1 (mixture of isomers) [compound 308, rac-(1S,2R)-2-(cyano(1-(3-(4-cyanophenoxy)propyl)piperidin-4-yl)(2-fluorophenyl)methyl)cyclopentyl acetate]",66 nM
12,"CS(=O)(=O)c1ccc(N2CC(CN3CCC(C4(C5CCCC5)NCCc5ccccc54)CC3)C2)cc1 (stereo not drawn) [compound 132, 1-cyclopentyl-1-(1-((1-(4-(methylsulfonyl)phenyl)azetidin-3-yl)methyl)piperidin-4-yl)-1,2,3,4-tetrahydroisoquinoline]",77 nM
13,"N#Cc1ccc(OCCCN2CCC(C3(C4CCc5ccccc54)NCCc4ccccc43)CC2)cc1 (stereo not drawn) [compound 244, 4-(3-(4-(1-(2,3-dihydro-1H-inden-1-yl)-1,2,3,4-tetrahydroisoquinolin-1-yl)piperidin-1-yl)propoxy)benzonitrile]",2300 nM
14,"CS(=O)(=O)N[C@@H]1CCC[C@H]1C(C#N)(c1ccccc1)C1CCN(CC2CN(c3ccc(S(=O)(=O)c4ccncc4)cc3)C2)CC1 (mixture of isomers) [compound 268, rac-N-((1R,2S)-2-(cyano(phenyl)(1-((1-(4-(pyridin-4-ylsulfonyl)phenyl)azetidin-3-yl)methyl)piperidin-4-yl)methyl)cyclopentyl) methanesulfonamide]",4700 nM
15,"N#Cc1ccc(OC2CC(N3CCC(C4(C5CCCC5)NCCc5ccccc54)CC3)C2)cc1 (single isomer, unassigned) [compound 131, 4-((1r,3r)-3-(4-(1-cyclopentyl-1,2,3,4-tetrahydroisoquinolin-1-yl)piperidin-1-yl)cyclobutoxy)benzonitrile]",1100 nM
16,"COC(=O)N1Cc2ccccc2C(C2CCN(CCCOc3ccc(C#N)cc3)CC2)([C@H]2CCC[C@@H]2OC)C1 (mixture of isomers) [compound 324, methyl rac-4-(1-(3-(4-cyanophenoxy)propyl)piperidin-4-yl)-4-((1R,2S)-2-methoxycyclopentyl)-3,4-dihydroisoquinoline-2(1H)-carboxylate]",9600 nM
17,"FCC1(CF)CC(N2CCC(C3(C4CCCC4)NCCc4ccccc43)CC2)C1 (stereo not drawn) [compound 56, 1-(1-(3,3-bis(fluoromethyl)cyclobutyl)piperidin-4-yl)-1-cyclopentyl-1,2,3,4-tetrahydroisoquinoline]",18200 nM
18,"CCO[C@@H]1CCC[C@H]1C(C#N)(c1ccccc1)C1CCN(CC2CN(c3ccc(S(C)(=O)=O)cc3)C2)CC1 (mixture of isomers) [compound 189, rac-2-((1S,2R)-2-ethoxycyclopentyl)-2-(1-((1-(4-(methylsulfonyl)phenyl)azetidin-3-yl)methyl)piperidin-4-yl)-2-phenylacetonitrile]",20500 nM
19,"COC(=O)N[C@H]1CCC[C@@H]1C(C#N)(c1ccccc1)C1CCN(CC2CN(c3ccccc3)C2)CC1 (mixture of isomers) [compound 402, methyl rac-((1S,2R)-2-(cyano(phenyl)(1-((1-phenylazetidin-3-yl)methyl)piperidin-4-yl)methyl)cyclopentyl) carbamate]",2400 nM
20,"CN1Cc2cccc(Cl)c2C(C2CCCC2)(C2CCN(CCCOc3ccc(C#N)cc3)CC2)C1 (stereo not drawn) [compound 34, 4-(3-(4-(5-chloro-4-cyclopentyl-2-methyl-1,2,3,4-tetrahydroisoquinolin-4-yl)piperidin-1-yl)propoxy)benzonitrile]",1800 nM
21,"N#Cc1ccc(OCCCN2CCC(C3(C4CCCC4)NCCc4ccc(F)cc43)CC2)cc1 (stereo not drawn) [compound 22, 4-(3-(4-(1-cyclopentyl-7-fluoro-1,2,3,4-tetrahydroisoquinolin-1-yl)piperidin-1-yl)propoxy)benzonitrile]",473 nM
22,"CC(=O)N1CCC[C@H]1C(C#N)(c1ccccc1)C1CCN(CCCOc2ccc(C#N)cc2)CC1 (stereo partly drawn) [compound 330, 4-(3-(4-(((S)-1-acetylpyrrolidin-2-yl)(cyano)(phenyl)methyl)piperidin-1-yl)propoxy)benzonitrile]",111000 nM
23,"c1ccc(CN2CCC(C3(C4CCCC4)NCCc4ccccc43)CC2)cc1 (stereo not drawn) [Cpd. No. 71, 1-(1-benzylpiperidin-4-yl)-1-cyclopentyl-1,2,3,4-tetrahydroisoquinoline]",190000 nM
24,"O=S(=O)(c1ccncc1)c1ccc(N2CC(CN3CCC(C4(C5CCCC5)CN(CCN5CCOCC5)Cc5ccccc54)CC3)C2)cc1 (stereo not drawn) [compound 54, 4-(2-(4-cyclopentyl-4-(1-((1-(4-(pyridin-4-ylsulfonyl)phenyl)azetidin-3-yl)methyl)piperidin-4-yl)-3,4-dihydroisoquinolin-2(1H)-yl)ethyl)morpholine]",11 nM
25,"CC(C)CCC1(C2CCN(CCCOc3ccc(C#N)cc3)CC2)NCCc2ccccc21 (stereo not drawn) [compound 250, 4-(3-(4-(1-isopentyl-1,2,3,4-tetrahydroisoquinolin-1-yl)piperidin-1-yl)propoxy)benzonitrile]",4700 nM
26,"CNC(=O)O[C@@H]1CCC[C@H]1C(Cn1ccnc1C)(c1cccc(F)c1)C1CCN(CC2CN(c3ccc(Cl)cc3)C2)CC1 (mixture of isomers) [compound 414, rac-(1R,2S)-2-(1-(1-((1-(4-chlorophenyl)azetidin-3-yl)methyl)piperidin-4-yl)-1-(3-fluorophenyl)-2-(2-methyl-1H-imidazol-1-yl)ethyl)cyclopentyl methylcarbamate]",539 nM
27,"CCO[C@@H]1CCC[C@H]1C(C#N)(c1ccccc1)C1CCN(CC2CN(c3ccc(S(=O)(=O)c4ccncc4)cc3)C2)CC1 (mixture of isomers) [compound 199, rac-2-((1S,2R)-2-ethoxycyclopentyl)-2-phenyl-2-(1-((1-(4-(pyridin-4-ylsulfonyl)phenyl)azetidin-3-yl)methyl)piperidin-4-yl)acetonitrile]",9000 nM
28,"N#CC(c1ccccc1)(C1CCCC1)C1CCN(CCCOc2ccc(S(=O)(=O)c3ccccc3)cc2)CC1 (stereo not drawn) [compound 126, 2-cyclopentyl-2-phenyl-2-(1-(3-(4-(phenylsulfonyl)phenoxy)propyl)piperidin-4-yl)acetonitrile]",58400 nM
